Experimental data: patent US7582645B2, “Pyrimidine derivatives for treatment of hyperproliferative disorders” (Bayer Pharmaceuticals Corporation, priority 2003, dated 2009)
Structures can show the parent of a compound that is named as a salt.

Tested on: HCT116 cells
Assay: HCT116 cytotoxic activity assay (Alamar Blue, 72 h)
Format: cell-based
Settings: Homo sapiens, HCT-116, 72 h compound exposure, greater than 500 nM but less than or equal to 2 μM
Description: Representative compounds of this invention were tested for cytotoxicity using the above-described assay procedure with the following results: […]

SMILES	IC50 [nM]
COc1ccc(-c2cc(Nc3ccc(Oc4ccnc(C(F)(F)F)c4)cc3)nc(N)n2)cc1OC [Example 189, 6-(3,4-dimethoxyphenyl)-N4*-(4-{[2-(trifluoromethyl)pyridin-4-yl]oxy}phenyl)pyrimidine-2,4-diamine]	500 to 2000
Nc1nc(Nc2ccc(Oc3ccnc(C(F)(F)F)c3)cc2)cc(-c2ccccc2N)n1 [Example 194, 6-(2-aminophenyl)-N4*-(4-{[2-(trifluoromethyl)pyridin-4-yl]oxy}phenyl)pyrimidine-2,4-diamine]	500 to 2000
Nc1nc(Nc2ccc(Oc3ccnc(C(F)(F)F)c3)cc2)cc(-c2cccc(C(F)(F)F)c2)n1 [Example 197, 6-[3-(trifluoromethyl)phenyl]-N4*-(4-{[2-(trifluoromethyl)pyridin-4-yl]oxy}phenyl)pyrimidine-2,4-diamine]	500 to 2000
N#Cc1cccc(-c2cc(Nc3ccc(Oc4ccnc(C(F)(F)F)c4)cc3)nc(N)n2)c1 [Example 198, 3-{2-amino-6-[(4-{[2-(trifluoromethyl)pyridin-4-yl]oxy}phenyl)amino]pyrimidin-4-yl}benzonitrile]	500 to 2000
COc1ccc(C(C)C)cc1-c1cc(Nc2ccc(Oc3ccnc(C(F)(F)F)c3)cc2)nc(N)n1 [Example 201, 6-(5-isopropyl-2-methoxyphenyl)-N4*-(4-{[2-(trifluoromethyl)pyridin-4-yl]oxy}phenyl)pyrimidine-2,4-diamine]	500 to 2000
COc1ccncc1-c1cc(Nc2ccc(Oc3ccnc(C(F)(F)F)c3)cc2)nc(N)n1 [Example 203, 6-(4-methoxypyridin-3-yl)-N4*-(4-{[2-(trifluoromethyl)pyridin-4-yl]oxy}phenyl)pyrimidine-2,4-diamine]	500 to 2000
CCSc1ccc(-c2cc(Nc3ccc(Oc4ccnc(C(F)(F)F)c4)cc3)nc(N)n2)cc1 [Example 207, 6-[4-(ethylthio)phenyl]-N4*-(4-{[2-(trifluoromethyl)pyridin-4-yl]oxy}phenyl)pyrimidine-2,4-diamine]	500 to 2000
CCCCc1ccc(-c2cc(Nc3ccc(Oc4ccnc(C#N)c4)cc3)nc(N)n2)cc1 [Example 220, 4-(4-{[2-amino-6-(4-butylphenyl)pyrimidin-4-yl]amino}phenoxy) pyridine-2-carbonitrile]	500 to 2000
NC(=O)c1cc(Oc2ccc(Nc3cc(-c4cccc(OCc5ccccc5)c4)nc(N)n3)cc2)ccn1 [Example 222, 4-[4-({2-amino-6-[3-(benzyloxy)phenyl]pyrimidin-4-yl}amino)phenoxy]pyridine-2-carboxamide]	500 to 2000

Same assay, conditions: Homo sapiens, HCT-116, 72 h compound exposure, greater than 2 μM

SMILES	IC50 [nM]
Nc1nc(Nc2ccc(Oc3ccnc(C(F)(F)F)c3)cc2)cc(-c2cccc(OC(F)(F)F)c2)n1 [Example 216, 6-[3-(trifluoromethoxy)phenyl]-N4*- (4-{[2-(trifluoromethyl)pyridin-4-yl]oxy}phenyl)pyrimidine-2,4-diamine]	> 2000
Nc1nc(Nc2ccc(Oc3ccnc(C(F)(F)F)c3)cc2)cc(-c2ccc(OC(F)(F)F)cc2)n1 [Example 217, 6-[4-(trifluoromethoxy)phenyl]-N4*- (4-{[2-(trifluoromethyl)pyridin-4-yl]oxy}phenyl)pyrimidine-2,4-diamine]	> 2000
N#Cc1cc(Oc2ccc(Nc3cc(-c4ccc(-c5ccccc5)c(F)c4)nc(N)n3)cc2)ccn1 [Example 221, 4-(4-{[2-amino-6-(2-fluorobiphenyl-4-yl)pyrimidin-4-yl]amino}phenoxy) pyridine-2-carbonitrile]	> 2000

Same assay, conditions: Homo sapiens, HCT-116, 72 h compound exposure, less than or equal to 500 nM

SMILES	IC50 [nM]
Nc1nc(Nc2ccc(Oc3ccnc(C(F)(F)F)c3)cc2)cc(-c2ccc(-c3ccccc3)cc2)n1 [Example 187, 6-biphenyl-4-yl-N4*-(4-{[2-(trifluoromethyl)pyridin-4-yl]oxy}phenyl) pyrimidine-2,4-diamine]	≤ 500
Nc1nc(Nc2ccc(Oc3ccnc(C(F)(F)F)c3)cc2)cc(-c2cccs2)n1 [Example 188, 6-(2-thienyl)-N4*-(4-{[2-(trifluoromethyl)pyridin-4-yl]oxy}phenyl)pyrimidine-2,4-diamine]	≤ 500
COc1ccc(-c2cc(Nc3ccc(Oc4ccnc(C(F)(F)F)c4)cc3)nc(N)n2)cc1 [Example 190, 6-(4-methoxyphenyl)-N4*-(4-{[2-(trifluoromethyl)pyridin-4-yl]oxy}phenyl)pyrimidine-2,4-diamine]	≤ 500
COc1ccc(-c2cc(Nc3ccc(Oc4ccnc(C(F)(F)F)c4)cc3)nc(N)n2)cn1 [Example 191, 6-(6-methoxypyridin-3-yl)-N4*-(4-{[2-(trifluoromethyl)pyridin-4-yl]oxy}phenyl)pyrimidine-2,4-diamine]	≤ 500
Nc1nc(Nc2ccc(Oc3ccnc(C(F)(F)F)c3)cc2)cc(-c2cccc(F)c2)n1 [Example 192, 6-(3-fluorophenyl)-N4*-(4-{[2-(trifluoromethyl)pyridin-4-yl]oxy}phenyl)pyrimidine-2,4-diamine]	≤ 500
Nc1nc(Nc2ccc(Oc3ccnc(C(F)(F)F)c3)cc2)cc(-c2ccccc2F)n1 [Example 193, 6-(2-fluorophenyl)-N4*-(4-{[2-(trifluoromethyl)pyridin-4-yl]oxy}phenyl)pyrimidine-2,4-diamine]	≤ 500
Nc1nc(Nc2ccc(Oc3ccnc(C(F)(F)F)c3)cc2)cc(-c2ccoc2)n1 [Example 195, 6-(3-furyl)-N4*-(4-{[2-(trifluoromethyl)pyridin-4-yl]oxy}phenyl)pyrimidine-2,4-diamine]	≤ 500
Nc1nc(Nc2ccc(Oc3ccnc(C(F)(F)F)c3)cc2)cc(-c2ccc(F)cc2)n1 [Example 196, 6-(4-fluorophenyl)-N4*-(4-{[2-(trifluoromethyl)pyridin-4-yl]oxy}phenyl)pyrimidine-2,4-diamine]	≤ 500
CN(C)c1ccc(-c2cc(Nc3ccc(Oc4ccnc(C(F)(F)F)c4)cc3)nc(N)n2)cc1 [Example 199, 6-[4-(dimethylamino)phenyl]-N4*-(4-{[2-(trifluoromethyl)pyridin-4-yl]oxy}phenyl)pyrimidine-2,4-diamine]	≤ 500
CCc1cccc(-c2cc(Nc3ccc(Oc4ccnc(C(F)(F)F)c4)cc3)nc(N)n2)c1 [Example 200, 6-(3-ethylphenyl)-N4*-(4-{[2-(trifluoromethyl)pyridin-4-yl]oxy}phenyl)pyrimidine-2,4-diamine]	≤ 500
Cc1ccccc1-c1cc(Nc2ccc(Oc3ccnc(C(F)(F)F)c3)cc2)nc(N)n1 [Example 202, 6-(2-methylphenyl)-N4*-(4-{[2-(trifluoromethyl)pyridin-4-yl]oxy}phenyl)pyrimidine-2,4-diamine]	≤ 500
Nc1nc(Nc2ccc(Oc3ccnc(C(F)(F)F)c3)cc2)cc(-c2ccc(F)cc2F)n1 [Example 204, 6-(2,4-difluorophenyl)-N4*-(4-{[2-(trifluoromethyl)pyridin-4-yl]oxy}phenyl)pyrimidine-2,4-diamine]	≤ 500
Nc1nc(Nc2ccc(Oc3ccnc(C(F)(F)F)c3)cc2)cc(-c2cccc(CO)c2)n1 [Example 205, (3-{2-amino-6-[(4-{[2-(trifluoromethyl)pyridin-4-yl]oxy}phenyl)amino]pyrimidin-4-yl}phenyl) methanol]	≤ 500
COc1cccc(-c2cc(Nc3ccc(Oc4ccnc(C(F)(F)F)c4)cc3)nc(N)n2)c1 [Example 206, 6-(3-methoxyphenyl)-N4*-(4-{[2-(trifluoromethyl)pyridin-4-yl]oxy}phenyl)pyrimidine-2,4-diamine]	≤ 500
Cc1ccc(-c2cc(Nc3ccc(Oc4ccnc(C(F)(F)F)c4)cc3)nc(N)n2)cc1N [Example 208, 6-(3-amino-4-methylphenyl)-N4*-(4-{[2-(trifluoromethyl)pyridin-4-yl]oxy}phenyl)pyrimidine-2,4-diamine]	≤ 500
CC(C)c1ccc(-c2cc(Nc3ccc(Oc4ccnc(C(F)(F)F)c4)cc3)nc(N)n2)cc1 [Example 209, 6-(4-isopropylphenyl)-N4*-(4-{[2-(trifluoromethyl)pyridin-4-yl]oxy}phenyl)pyrimidine-2,4-diamine]	≤ 500
N#CCc1ccc(-c2cc(Nc3ccc(Oc4ccnc(C(F)(F)F)c4)cc3)nc(N)n2)cc1 [Example 210, (4-{2-amino-6-[(4-{[2-(trifluoromethyl)pyridin-4-yl]oxy}phenyl)amino]pyrimidin-4-yl}phenyl) acetonitrile]	≤ 500
Cc1ccc(-c2cc(Nc3ccc(Oc4ccnc(C(F)(F)F)c4)cc3)nc(N)n2)cc1 [Example 211, 6-(4-methylphenyl)-N4*-(4-{[2-(trifluoromethyl)pyridin-4-yl]oxy}phenyl)pyrimidine-2,4-diamine]	≤ 500
Cc1cccc(-c2cc(Nc3ccc(Oc4ccnc(C(F)(F)F)c4)cc3)nc(N)n2)c1 [Example 212, 6-(3-methylphenyl)-N4*-(4-{[2-(trifluoromethyl)pyridin-4-yl]oxy}phenyl)pyrimidine-2,4-diamine]	≤ 500
Nc1nc(Nc2ccc(Oc3ccnc(C(F)(F)F)c3)cc2)cc(-c2cccnc2)n1 [Example 213, 6-pyridin-3-yl-N4*-(4-{[2-(trifluoromethyl)pyridin-4-yl]oxy}phenyl)pyrimidine-2,4-diamine]	≤ 500
Nc1nc(Nc2ccc(Oc3ccnc(C(F)(F)F)c3)cc2)cc(-c2ccsc2)n1 [Example 214, 6-(3-thienyl)-N4*-(4-{[2-(trifluoromethyl)pyridin-4-yl]oxy}phenyl)pyrimidine-2,4-diamine]	≤ 500
COc1ccc(OC)c(-c2cc(Nc3ccc(Oc4ccnc(C(F)(F)F)c4)cc3)nc(N)n2)c1 [Example 215, 6-(2,5-dimethoxyphenyl)-N4*-(4-{[2-(trifluoromethyl)pyridin-4-yl]oxy}phenyl)pyrimidine-2,4-diamine]	≤ 500
Nc1nc(Nc2ccc(Oc3ccnc(C(F)(F)F)c3)cc2)cc(-c2cc(F)cc(F)c2)n1 [Example 218, 6-(3,5-difluorophenyl)-N4*-(4-{[2-(trifluoromethyl)pyridin-4-yl]oxy}phenyl)pyrimidine-2,4-diamine]	≤ 500
N#Cc1cc(Oc2ccc(Nc3cc(-c4ccc[nH]4)nc(N)n3)cc2)ccn1 [Example 219, 4-(4-{[2-amino-6-(1H-pyrrol-2-yl)pyrimidin-4-yl]amino}phenoxy) pyridine-2-carbonitrile hydrochloride]	≤ 500
